# “And” between values parts separate entries of the source, which are not always exact repeats. Identical values can stand only once. Inconclusive results are not listed.
# System: Lewis lung carcinoma i.m., BDF1 mice, T/C %
# Experiment: NCI In Vivo Anticancer Drug Screen. Data for tumor model Lewis Lung Carcinoma (intramuscular) in B6D2F1 (BDF1) mice
# Procedure, shortened: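 Transplantable tumour model; readout survival or tumour size; value = treated (T) / vehicle control (C).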
# [1] = endpoint: median survival time, dose: 0.5 mg/kg/injection, schedule: Q01DX011 (ip), vehicle: saline, higher = longer survival
smiles,measurement,setting,value
CO[C@@]12[C@H](COC(N)=O)C3=C(C(=O)C(C)=C(N)C3=O)N1C[C@@H]1N[C@@H]12,T/C,"endpoint: mean tumor weight, dose: 0.5 mg/kg/injection, schedule: Q01DX005 (ip), vehicle: other, higher = larger tumour",101 % of control
same,T/C,"endpoint: mean tumor weight, dose: 1.0 mg/kg/injection, schedule: Q01DX005 (ip), vehicle: other, higher = larger tumour",82 % of control
same,T/C,"endpoint: mean tumor weight, dose: 2.0 mg/kg/injection, schedule: Q01DX005 (ip), vehicle: other, higher = larger tumour",75 % of control
same,T/C,"endpoint: median survival time, dose: 0.25 mg/kg/injection, schedule: Q01DX009 (ip), vehicle: Klucel (hydroxypropylcellulose) (HPC), higher = longer survival",86 % of control and 112 % of control
same,T/C,"endpoint: median survival time, dose: 0.25 mg/kg/injection, schedule: Q01DX011 (ip), vehicle: saline, higher = longer survival",112 % of control
same,T/C,"endpoint: median survival time, dose: 0.5 mg/kg/injection, schedule: Q01DX005 (ip), vehicle: other, higher = longer survival",90 % of control
same,T/C,"endpoint: median survival time, dose: 0.5 mg/kg/injection, schedule: Q01DX005 (ip), vehicle: saline, higher = longer survival",107 % of control
same,T/C,"endpoint: median survival time, dose: 0.5 mg/kg/injection, schedule: Q01DX009 (ip), vehicle: Klucel (hydroxypropylcellulose) (HPC), higher = longer survival",101 % of control and 110 % of control
same,T/C,[1],114 % of control
same,T/C,"endpoint: median survival time, dose: 1.0 mg/kg/injection, schedule: Q01DX005 (ip), vehicle: saline, higher = longer survival",90 % of control
same,T/C,"endpoint: median survival time, dose: 1.0 mg/kg/injection, schedule: Q01DX009 (ip), vehicle: Klucel (hydroxypropylcellulose) (HPC), higher = longer survival",97 % of control
same,T/C,"endpoint: median survival time, dose: 1.0 mg/kg/injection, schedule: Q01DX011 (ip), vehicle: water, higher = longer survival",86 % of control
same,T/C,"endpoint: median survival time, dose: 2.0 mg/kg/injection, schedule: Q01DX005 (ip), vehicle: other, higher = longer survival",114 % of control
same,T/C,"endpoint: median tumor weight (est.), dose: 0.5 mg/kg/injection, schedule: Q01DX005 (ip), vehicle: saline, higher = larger tumour",64 % of control
same,T/C,"endpoint: median tumor weight (est.), dose: 1.0 mg/kg/injection, schedule: Q01DX005 (ip), vehicle: saline, higher = larger tumour",78 % of control
OC1CCCC2CCC[N-]C12.OC1CCCC2CCC[N-]C12.[O]=[V][OH] (centres undefined),T/C,"endpoint: mean tumor weight (est.), dose: 6.25 mg/kg/injection, schedule: Q01DX011 (ip), vehicle: saline, higher = larger tumour",86 % of control
same,T/C,"endpoint: mean tumor weight (est.), dose: 12.5 mg/kg/injection, schedule: Q01DX011 (ip), vehicle: saline, higher = larger tumour",70 % of control
same,T/C,"endpoint: mean tumor weight (est.), dose: 25.0 mg/kg/injection, schedule: Q01DX011 (ip), vehicle: saline, higher = larger tumour",50 % of control
same,T/C,"endpoint: median survival time, dose: 6.25 mg/kg/injection, schedule: Q01DX011 (ip), vehicle: saline, higher = longer survival",101 % of control
same,T/C,"endpoint: median survival time, dose: 12.5 mg/kg/injection, schedule: Q01DX011 (ip), vehicle: saline, higher = longer survival",107 % of control
same,T/C,"endpoint: median survival time, dose: 25.0 mg/kg/injection, schedule: Q01DX011 (ip), vehicle: saline, higher = longer survival",107 % of control
O=[N+]([O-])c1cc(Cl)cc2c1nc(NCCO)c1ccccc12,T/C,"endpoint: mean tumor weight (est.), dose: 12.5 mg/kg/injection, schedule: Q01DX011 (ip), vehicle: saline with Tween-80, higher = larger tumour",70 % of control
same,T/C,"endpoint: mean tumor weight (est.), dose: 25.0 mg/kg/injection, schedule: Q01DX011 (ip), vehicle: saline with Tween-80, higher = larger tumour",43 % of control
same,T/C,"endpoint: median survival time, dose: 12.5 mg/kg/injection, schedule: Q01DX011 (ip), vehicle: saline with Tween-80, higher = longer survival",98 % of control
Cc1c2c(cc3c1[nH]c1ccccc13)C(c1ccc(Cl)cc1)=NCC2,T/C,"endpoint: mean tumor weight (est.), dose: 75.0 mg/kg/injection, schedule: Q01DX011 (ip), vehicle: saline with Tween-80, higher = larger tumour",54 % of control
same,T/C,"endpoint: mean tumor weight (est.), dose: 150.0 mg/kg/injection, schedule: Q01DX011 (ip), vehicle: saline with Tween-80, higher = larger tumour",41 % of control
same,T/C,"endpoint: mean tumor weight (est.), dose: 300.0 mg/kg/injection, schedule: Q01DX011 (ip), vehicle: saline with Tween-80, higher = larger tumour",40 % of control
same,T/C,"endpoint: median survival time, dose: 75.0 mg/kg/injection, schedule: Q01DX011 (ip), vehicle: saline with Tween-80, higher = longer survival",100 % of control
same,T/C,"endpoint: median survival time, dose: 150.0 mg/kg/injection, schedule: Q01DX011 (ip), vehicle: saline with Tween-80, higher = longer survival",92 % of control
same,T/C,"endpoint: median survival time, dose: 300.0 mg/kg/injection, schedule: Q01DX011 (ip), vehicle: saline with Tween-80, higher = longer survival",111 % of control
CC(=O)OC1C(=O)C(O)C(C)OC1O[C@@H]1C[C@@]2(C)[C@@H]3CC=C4[C@@H](C[C@H](O)C(=O)C4(C)C)[C@]3(C)C(=O)C[C@]2(C)[C@H]1[C@@](C)(O)C(=O)/C=C/C(C)(C)O (some centres undefined),T/C,"endpoint: mean tumor weight, dose: 0.5 mg/kg/injection, schedule: Q01DX011 (ip), vehicle: saline, higher = larger tumour",41 % of control
same,T/C,"endpoint: mean tumor weight, dose: 1.0 mg/kg/injection, schedule: Q01DX011 (ip), vehicle: saline, higher = larger tumour",32 % of control
same,T/C,"endpoint: mean tumor weight, dose: 2.0 mg/kg/injection, schedule: Q01DX011 (ip), vehicle: saline, higher = larger tumour",41 % of control
same,T/C,[1],113 % of control
same,T/C,"endpoint: median survival time, dose: 1.0 mg/kg/injection, schedule: Q01DX011 (ip), vehicle: saline, higher = longer survival",89 % of control
same,T/C,"endpoint: median survival time, dose: 2.0 mg/kg/injection, schedule: Q01DX011 (ip), vehicle: saline, higher = longer survival",91 % of control
CC(=O)n1cc(F)c(=O)[nH]c1=O,T/C,"endpoint: median survival time, dose: 6.0 mg/kg/injection, schedule: Q01DX011 (ip), vehicle: saline, higher = longer survival",98 % of control
same,T/C,"endpoint: median survival time, dose: 12.0 mg/kg/injection, schedule: Q01DX011 (ip), vehicle: saline, higher = longer survival",111 % of control
same,T/C,"endpoint: median survival time, dose: 24.0 mg/kg/injection, schedule: Q01DX011 (ip), vehicle: saline, higher = longer survival",109 % of control

# From PubChem BioAssay AID272 (DTP/NCI, 2004)
